Test results published in US4303659A, “Schistosomicidal compositions” (Pfizer Inc., priority 1979, dated 1981).
Where two headings read alike, the source gives them in different places.

System: Puerto Rican strain of Schistosoma mansoni
Assay: Effectiveness in treatment of schistosomiasis in infected mice (worm kill after oral dosing, perfusion and liver count 14 days post treatment)
Type: in vivo
Settings: 336 h, oral gavage
Method: Male mice are infected with 100 cercariae of Schistosoma mansoni and used 8-10 weeks post infection. The test compound(s) are suspended (at the desired concentration level) in a 10% solution of Cremophor EL in 0.2 M phosphate buffer at pH 7.0 (Cremophor EL is the registered trademark name of Badische Anilin und Soda-Fabrik of Ludwigshafen, West Germany for glycerol-polyethylene glycolricinoleate).
The resulting mixture is then administered to the mice by an oral gavage needle, using 0.3 ml. of the above suspension for a 30-gram animal. Fourteen days post treatment, the mice are killed by cervical dislocation and living worms are recovered from the blood vessels by perfusion. The liver is then removed and compressed between two glass plates, and the encapsulated (i.e., dead) worms are counted.
Effective doses required to kill 50% and 99% of male worms (i.e., ED50 and ED99 values, respectively) are calculated from the regression line of the dose response data.

`CC(C)NCC1CCc2cc(CO)c([N+](=O)[O-])cc2N1` (racemic) [Oxamniquine, dl-6-hydroxymethyl-2-isopropylaminomethyl-7-nitro-1,2,3,4-tetrahydroquinoline] was tested, and the ED50 (compound alone, dose to kill 50% of male worms) was 39 mg/kg, the ED99 (compound alone, dose to kill 99% of male worms) was 89 mg/kg and the ED50 (oxamniquine in combination with 25 mg./kg. of praziquantel, 50% of male worms killed) was 8.6 mg/kg. It also gave an ED99 (oxamniquine in combination with 25 mg./kg. of praziquantel, 99% of male worms killed) of 16.6 mg/kg.

`O=C(C1CCCCC1)N1CC(=O)N2CCc3ccccc3C2C1` (stereo not drawn) [Praziquantel, 2-cyclohexylcarbonyl-4-oxo-1,2,3,6,7,11b-hexahydro-4H-pyrazino [2,1a]isoquinoline] was tested, and the ED50 (compound alone, dose to kill 50% of male worms, read-out: ED50) was 156 mg/kg and the ED50 (praziquantel in combination with 12.5 mg./kg. of oxamniquine, 50% of male worms killed, read-out: ED50) was 4.9 mg/kg.
